Common to all, as to assay: DTP human tumour cell line panel, 48 h
In assay [1] the test system is A549 NSCLC.
For assay [2], the system named is TK-10 renal.
In assay [3] the test system is SK-MEL-28 melanoma.
The subject of assay [4] is COLO 205 colon.
Assay [5] concerns HT29 colon.
Assay [6] has as its system MDA-N.
The subject of assay [7] is M14 melanoma.
For assay [8], the system named is SF-539 CNS.
The subject of assay [9] is K-562 leukemia.
The subject of assay [10] is PC-3 prostate.
The test system of assay [11] is SW-620 colon.
Assay [12] deals with SF-295 CNS.
Assay [13] has as its system LOX IMVI melanoma.
The subject of assay [14] is MDA-MB-231 breast.
Assay [15] concerns NCI-H522 lung.

Molecules are shown by their SMILES.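 These data come from cells grown in 96-well plates and exposed to compound for 48 hours at five concentrations. At the TGI there is no net growth.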

Drawing on PubChem BioAssay (NCI), this text covers TGI for 10 molecules.

A word on the TGI: it is the concentration giving total growth inhibition. Read a high TGI as less potent growth arrest. In the case of `N#Cc1c(Cl)cccc1Oc1ccc(S(=O)(=O)/N=C(\NO)Nc2ccc(Cl)cc2)cc1`, the TGI amounted to 32.2 µM in assay [1]; 30.7 µM in assay [2]; 41 µM in assay [3]; 33.6 µM in assay [4]; 31.5 µM in assay [5]; 29.9 µM in assay [6]. Further, the TGI in [7] stood at 29.2 µM; in assay [8] it was 32.3 µM; in [9] it was 53.6 µM; in assay [10], 30.6 µM; in assay [11] it was 34.8 µM; in assay [12] it was 32.3 µM. The figures for the TGI in assay [13], in [14] and in assay [15] were 32 µM, 37.4 µM and 35.6 µM, respectively.

As for `COC(=O)/C=C/COCC1C2CCC(=O)C21` (stereo not given), the TGI in assay [1], in [2], in assay [3], in assay [4], in assay [5] and in assay [6] was above 100 µM throughout. Besides, the TGI in assay [7], in assay [8], in [9], in [10], in [11] and in [12] was above 100 µM in each case. Also, the TGI in assay [13], in assay [14] and in assay [15] was above 100 µM each time.

`COc1ccccc1/[N+]([O-])=C/c1ccccc1OC(=S)S`: the TGI in [1] is above 100 µM; in assay [2], above 100 µM; in assay [3], above 100 µM; in assay [4], 86 µM; in [5] it was above 100 µM; in [6], 35.9 µM. The TGI in assay [7], in assay [8], in [9], in assay [10], in [11] and in assay [12] was above 100 µM throughout. For the same molecule, the figures for the TGI in [13], in [14] and in assay [15] were above 100 µM, above 100 µM and 71.4 µM, respectively.

In the case of `O=C1CSC2(CC(/C=C/c3cccc(Br)c3)=NN2c2cccc(S(=O)(=O)O)c2)N1c1nc2ccccc2s1` (stereo not given), the total growth inhibition concentration (TGI) in assay [1], in [2], in [3], in [4], in assay [5] and in [6] was above 100 µM in each case. For the same molecule, the TGI in assay [7], in assay [8], in assay [9], in [10], in [11] and in assay [12] was above 100 µM each time. Also, the TGI in assay [13], in assay [14] and in assay [15] was above 100 µM in each case.

`CCOc1cc(NC(C)=O)ccc1C(=O)NN1C(=O)C(Cl)C1c1ccc(O)c(OC)c1` (stereo not given): the TGI was 32.5 µM in assay [1]; 11.5 µM in [2]; 38.2 µM in [3]; 35.1 µM in assay [4]; 31.9 µM in assay [5]; 31.9 µM in assay [6]. Besides, the TGI in assay [7] worked out at 28.1 µM; in [8], 26.8 µM; in [9], 25.1 µM; in assay [10], 28.3 µM; in assay [11] it was 60.1 µM; in [12], 39.1 µM. Moreover, the TGI in [13] was 7.79 µM; in [14], 26.9 µM; in assay [15], 22.8 µM.

With `CCOC(=O)NC(OCCN(C)C)(C(F)(F)F)C(F)(F)F`, the TGI in [1], in assay [2], in assay [3], in assay [4], in assay [5] and in [6] was above 100 µM each time. Further, the TGI in [7], in assay [8], in assay [9], in [10], in assay [11] and in [12] was above 100 µM each time. Further, the TGI in [13], in assay [14] and in assay [15] was above 100 µM in each case.

Take `CN(C(=O)C12C3C4C1C1C2C3C41C(=O)O)C(C)(C)C` (stereo not given): the TGI in [1], in [2], in assay [3], in assay [4], in [5] and in assay [6] was above 100 µM each time. For the same molecule, the TGI in assay [7], in assay [8], in [9], in assay [10], in assay [11] and in [12] was above 100 µM each time. The TGI in assay [13], in assay [14] and in [15] was above 100 µM each time.

With `Nc1c(O)c2c(c(O)c1Cl)C(=O)C=CC2=O`, the TGI in assay [1] came to 5.68 µM; in assay [2], 37 µM; in assay [3] it was 8.68 µM; in [4], 3.32 µM; in assay [5], 8.21 µM; in assay [6] it was 3.24 µM. The TGI was 6.08 µM in assay [7]; 7.76 µM in [8]; above 60.6 µM in assay [9]; 14.8 µM in assay [10]; 9.93 µM in [11]; 6.94 µM in assay [12]. Besides, the results for the TGI in [13], in [14] and in assay [15] were 16.4 µM, 19.7 µM and 28 µM, respectively.

For `CN(O)C(=O)c1ccc(OCc2cccc(Cl)c2)cc1`, the TGI in assay [1], in assay [2], in assay [3], in assay [4], in assay [5] and in assay [6] was above 100 µM each time. The TGI in [7] is above 50 µM; in [8], above 51.6 µM; in assay [9], above 100 µM; in assay [10], above 100 µM; in assay [11], above 100 µM; in assay [12] it was above 82.8 µM. Moreover, the TGI in [13], in assay [14] and in assay [15] was above 100 µM each time.

Regarding `CCOC(=O)CCN1C(=O)c2ccc(NC(=O)C(=O)O)cc2S1(=O)=O`, the TGI in assay [1], in assay [2], in [3], in [4], in assay [5] and in assay [6] was above 100 µM in each case. The concentration for total growth inhibition (TGI) in [7], in assay [8], in assay [9], in assay [10], in assay [11] and in assay [12] was above 100 µM in each case. The TGI in assay [13], in assay [14] and in assay [15] was above 100 µM throughout.
